As usually defined, the % Inhibition is the share of the control response that was lost under treatment. As usually defined, the inhibition is how much of the control response was suppressed.

The text below walks through data of patent US20110166136A1, “Calcium Ion Channel Modulators & Uses Thereof” (LECTUS THERAPEUTICS LIMITED, priority 2008, published 2011).

One test deals with T1, N-type/Cav2.2 channels (Homo sapiens, UniProt Q00975).
T1 construct: Primary dorsal root ganglion neurons were isolated using standard techniques; endogenous in cells
T1 sequence (Q00975 whole entry): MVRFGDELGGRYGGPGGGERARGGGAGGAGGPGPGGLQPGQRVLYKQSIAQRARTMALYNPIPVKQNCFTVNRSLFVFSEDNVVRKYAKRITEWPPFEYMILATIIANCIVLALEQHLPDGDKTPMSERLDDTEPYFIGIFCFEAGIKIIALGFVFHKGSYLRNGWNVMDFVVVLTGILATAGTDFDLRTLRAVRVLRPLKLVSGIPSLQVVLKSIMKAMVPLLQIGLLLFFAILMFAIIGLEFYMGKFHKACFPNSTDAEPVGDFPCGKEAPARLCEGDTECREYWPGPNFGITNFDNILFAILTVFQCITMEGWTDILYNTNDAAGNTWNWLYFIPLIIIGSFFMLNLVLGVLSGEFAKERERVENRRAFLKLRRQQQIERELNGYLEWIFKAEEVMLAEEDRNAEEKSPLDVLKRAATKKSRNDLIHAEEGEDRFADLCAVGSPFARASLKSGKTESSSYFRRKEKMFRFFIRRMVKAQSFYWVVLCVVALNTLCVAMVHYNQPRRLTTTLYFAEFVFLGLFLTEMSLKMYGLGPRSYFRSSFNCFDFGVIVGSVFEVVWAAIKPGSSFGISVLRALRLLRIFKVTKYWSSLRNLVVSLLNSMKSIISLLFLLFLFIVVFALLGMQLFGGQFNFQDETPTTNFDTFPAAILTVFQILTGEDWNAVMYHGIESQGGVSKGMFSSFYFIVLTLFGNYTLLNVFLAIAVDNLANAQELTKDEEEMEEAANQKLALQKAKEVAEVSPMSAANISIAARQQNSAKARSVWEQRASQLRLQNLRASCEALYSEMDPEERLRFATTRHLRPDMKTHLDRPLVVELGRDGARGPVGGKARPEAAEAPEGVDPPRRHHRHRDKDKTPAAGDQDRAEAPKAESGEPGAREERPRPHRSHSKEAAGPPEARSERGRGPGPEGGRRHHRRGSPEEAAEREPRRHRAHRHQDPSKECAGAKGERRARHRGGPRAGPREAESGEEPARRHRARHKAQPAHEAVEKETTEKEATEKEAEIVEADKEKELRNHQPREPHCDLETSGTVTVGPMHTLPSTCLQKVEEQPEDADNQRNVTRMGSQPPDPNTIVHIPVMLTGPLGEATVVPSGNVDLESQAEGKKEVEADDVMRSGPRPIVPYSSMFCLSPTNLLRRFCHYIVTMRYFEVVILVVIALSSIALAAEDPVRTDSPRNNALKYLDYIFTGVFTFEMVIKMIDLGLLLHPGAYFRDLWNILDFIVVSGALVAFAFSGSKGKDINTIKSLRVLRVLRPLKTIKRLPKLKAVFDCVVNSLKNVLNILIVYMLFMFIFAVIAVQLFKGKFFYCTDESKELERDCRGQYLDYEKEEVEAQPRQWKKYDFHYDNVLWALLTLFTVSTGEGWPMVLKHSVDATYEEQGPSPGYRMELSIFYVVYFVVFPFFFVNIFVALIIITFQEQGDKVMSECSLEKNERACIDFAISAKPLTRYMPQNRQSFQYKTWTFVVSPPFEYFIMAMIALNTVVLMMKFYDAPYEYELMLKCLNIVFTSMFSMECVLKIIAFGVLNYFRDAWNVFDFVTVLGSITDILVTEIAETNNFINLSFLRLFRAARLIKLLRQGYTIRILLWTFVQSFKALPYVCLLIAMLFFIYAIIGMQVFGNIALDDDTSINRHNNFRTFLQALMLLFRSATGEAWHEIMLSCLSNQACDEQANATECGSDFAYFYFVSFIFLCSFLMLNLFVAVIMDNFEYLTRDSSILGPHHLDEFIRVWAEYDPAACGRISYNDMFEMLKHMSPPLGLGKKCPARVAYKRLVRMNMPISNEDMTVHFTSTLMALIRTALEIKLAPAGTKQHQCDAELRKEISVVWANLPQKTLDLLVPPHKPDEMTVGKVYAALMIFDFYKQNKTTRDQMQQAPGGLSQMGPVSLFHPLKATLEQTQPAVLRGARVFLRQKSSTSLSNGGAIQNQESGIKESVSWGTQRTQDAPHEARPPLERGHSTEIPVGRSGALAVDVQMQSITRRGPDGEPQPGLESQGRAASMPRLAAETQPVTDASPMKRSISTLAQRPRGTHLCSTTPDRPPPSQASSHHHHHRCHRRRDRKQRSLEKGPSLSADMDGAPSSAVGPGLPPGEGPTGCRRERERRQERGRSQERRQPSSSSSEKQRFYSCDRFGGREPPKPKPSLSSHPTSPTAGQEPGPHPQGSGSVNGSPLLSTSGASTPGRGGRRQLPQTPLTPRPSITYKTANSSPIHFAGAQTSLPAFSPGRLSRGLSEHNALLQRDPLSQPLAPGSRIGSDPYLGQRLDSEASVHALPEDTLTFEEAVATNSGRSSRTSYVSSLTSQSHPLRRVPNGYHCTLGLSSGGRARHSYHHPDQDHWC
T1 sequence (P54289 25-956 partner limits assumed): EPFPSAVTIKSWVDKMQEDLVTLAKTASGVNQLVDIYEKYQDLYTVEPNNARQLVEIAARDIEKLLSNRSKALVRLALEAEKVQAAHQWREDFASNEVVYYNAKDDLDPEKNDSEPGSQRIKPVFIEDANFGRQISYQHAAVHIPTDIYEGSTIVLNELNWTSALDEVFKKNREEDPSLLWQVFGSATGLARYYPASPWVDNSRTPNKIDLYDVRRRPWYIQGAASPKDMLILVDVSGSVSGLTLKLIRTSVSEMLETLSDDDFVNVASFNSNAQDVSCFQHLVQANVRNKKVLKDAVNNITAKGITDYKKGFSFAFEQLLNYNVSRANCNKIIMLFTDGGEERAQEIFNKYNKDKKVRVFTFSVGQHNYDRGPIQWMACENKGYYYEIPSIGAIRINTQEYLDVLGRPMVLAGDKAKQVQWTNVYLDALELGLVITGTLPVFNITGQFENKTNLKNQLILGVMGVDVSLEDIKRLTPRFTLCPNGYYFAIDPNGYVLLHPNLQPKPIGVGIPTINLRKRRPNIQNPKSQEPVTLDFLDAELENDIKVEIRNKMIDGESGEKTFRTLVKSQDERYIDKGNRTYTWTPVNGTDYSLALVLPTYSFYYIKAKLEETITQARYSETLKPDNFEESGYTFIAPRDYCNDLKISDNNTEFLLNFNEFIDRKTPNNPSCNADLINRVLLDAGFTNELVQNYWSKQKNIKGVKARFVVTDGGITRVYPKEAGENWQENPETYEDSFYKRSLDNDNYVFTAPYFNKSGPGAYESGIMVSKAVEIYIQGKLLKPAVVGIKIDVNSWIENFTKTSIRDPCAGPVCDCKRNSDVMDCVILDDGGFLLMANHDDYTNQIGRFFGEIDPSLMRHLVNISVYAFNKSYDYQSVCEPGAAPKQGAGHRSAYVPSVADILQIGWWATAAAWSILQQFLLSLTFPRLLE
T1 sequence (P54289 957-1103 partner limits assumed): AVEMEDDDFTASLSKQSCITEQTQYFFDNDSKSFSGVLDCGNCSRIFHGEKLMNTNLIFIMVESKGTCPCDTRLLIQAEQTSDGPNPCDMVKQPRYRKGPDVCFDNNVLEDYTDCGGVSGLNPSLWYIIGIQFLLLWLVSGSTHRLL
Description: Whole-cell patch-clamp recording of barium currents carried by calcium channels in primary dorsal root ganglion neurons. As to conditions: 0.5 Hz stimulation, 100-ms steps to 0 mV from -70 mV, DRG neurons with Cm <40 pf. The format is cell-based. How it is done: Primary dorsal root ganglion neurons were isolated using standard techniques and placed in Ca^2+/Mg^2+ free phosphate-buffered saline (PBS). Hemisection of the spinal column and cord was performed and the ganglia were uncovered by gently lifting the spinal cord. They were placed in a dissociation solution (PBS) containing 1 mg/ml Collagenase (type XI) and trypsin (type II-S). Ganglia were incubated in the dissociation solution for 20 minutes at room temperature, followed by 20 minutes at 37° C. Ganglia were washed in culture medium, Dulbecco's Minimum essential medium (DMEM), supplemented with fetal calf serum (10%, Gibco), penicillin/strepromycin and glutamine (Glutamax, Gibco). Cells were dispersed by trituration and plated on poly-L-lysine-coated 35-mm dishes (BD Bioscience). Cells were kept in culture in a humidified atmosphere (37° C., 5% CO2) for up to 4 days for electrophysiological recordings. Unless otherwise noted, all reagents were purchased from Sigma-Aldrich.
Barium currents carried by calcium channels were recorded using the whole-cell configuration of the patch-clamp technique. All experiments were carried out at room temperature. Cells were bathed in an external solution containing, in mM: TEA-CI, 140; BaCl2, 5; MgCl2, 1; HEPES, 10; pH 7.3 adjusted with TEA-OH. Ba^2+ was used as a charge carrier to prevent the run-down caused by Ca^2+-activated inactivation of Ca^2+ channels. […] Electrophysiological recordings were generated and acquired with a patch-clamp amplifier (Axopatch 200B, or Multiclamp 7; Molecular devices) connected to a personal computer. Online and offline analysis was carried out using the pClamp software suite (v.9, Molecular Devices). Compounds were all prepared from 100 mM stocks in 100% dimethyl sulfoxide (DMSO) and further diluted in external solution to achieve the desired final concentration. Final DMSO concentration was always <0.1%. For the assessment of activity of the compounds, only cells with a membrane capacitance (Cm)<40 pf were used, as the Ca2+ current in these cells is carried mostly through N-type/Cav2.2 channels. Cell membrane potential was held at −70 mV and currents were elicited by a series of 100-ms steps to 0 mV, at a frequency of 0.1 Hz. After the establishment of a steady baseline current, the compound was applied to the bath. When the block induced by the compound reached a steady level, the frequency was then increased to 0.5 Hz, to assess use-dependence. After stabilization of the high frequency block, step depolarizations were stopped and cell membrane potential was kept at −70 mV for 100-120 s, after which 0.1 Hz stimulation (100 ms, 0 mV) was elicited, to assess recovery of the block. ω-conotoxin GVIA (100 nM; Alomone labs) was added at the end of the experiment to quantify the remaining N-type current. Selectivity of the compounds over non-N-type currents was studied using similar stimulation protocols, in a bath solution containing ω-conotoxin GVIA (100 nM).
(Patch clamp records ionic current or voltage across a cell membrane.)

The subject of test [1] is α2-δ voltage-gated calcium channel. The note with it: compared with gabapentin; cited from earlier work.
Where [2] appears, read: DRG neuron, compound concentration 1 uM.

On to “ethyl 2-(6-methoxy-1H-indol-3-yl)-2-oxoacetate [Compound 40]”, for which the “% Inhibition at 0.5 Hz” value at N-type/Cav2.2 channels (compound concentration 1 uM) stood at 57%.

For the compound `COc1ccc2c(C(=O)C(=O)N3CCN(C)CC3)c[nH]c2c1` [Compound 77, 1-(6-methoxy-1H-indol-3-yl)-2-(4-methylpiperazin-1-yl)ethane-1,2-dione], the inhibition at 1 µM at N-type/Cav2.2 channels (setting [2]) was found to be 55%.

With `COc1ccc2c(C(=O)C(=O)O)c[nH]c2c1` [Compound 31, 2-(6-methoxy-1H-indol-3-yl)-2-oxoacetic acid], on N-type/Cav2.2 channels (DRG neuron, compound concentration 0.1 uM), the inhibition at 0.1 µM was 36%. Turning to `CC(C)C[C@H](CN)CC(=O)O` [Pregabalin, pregabalin], the “potency in binding affinity to the α2-δ voltage-gated calcium channel relative to gabapentin” value in test [1] is given as “six-times more potent than gabapentin”.

Turning to `COc1ccc2c(C(=O)C(=O)N3CCOCC3)c[nH]c2c1` [Compound 57, 1-(6-methoxy-1H-indol-3-yl)-2-morpholinoethane-1,2-dione], the inhibition at 1 µM at N-type/Cav2.2 channels (setting [2]) was found to be 44%.

Consider `O=C(O)C(=O)c1c[nH]c2cc(F)ccc12` [Compound 20, 2-(6-fluoro-1H-indol-3-yl)-2-oxoacetic acid], for which the inhibition at 1 µM at N-type/Cav2.2 channels (setting [2]) worked out at 55%.
